# Experimental data from article PMC5400251, “Effect of quinoline based 1,2,3-triazole and its structural analogues on growth and virulence attributes of Candida albicans” (PLoS ONE, 2017).
# Assays:
# [1] = test system: C. albicans ATCC 90028; assay: Broth dilution IC50 determination; format: cell-based; conditions: Candida albicans, ATCC90028, SD broth, 37°C, 24 h, OD 600 nm, read-out: Anti-Candida Activity (IC50± S.D.) C. albicans ATCC90028
# Experimental: (§1) Broth dilution technique was employed to determine the IC50 values of all the synthesized 1,2,3 triazole derivatives (3a-c) against C. albicans ATCC 90028, C. glabrata ATCC 90030, C. tropicalis ATCC 750 and four clinical isolates of C. albicans namely D27, D31, D39 (FLC-sensitive) and D15.9 (FLC-resistant). The strains were maintained on yeast extract:peptone:dextrose ([…]) nutrient agar (2.5%) slants at 4°C. The test compounds were dissolved in DMSO with less than 4% concentration of it in the final test volume. Different concentrations (1000… 7.8 μg/mL) of test compounds in Sabouraud dextrose (SD) broth medium were dispensed into the wells, then inoculated with the test organism with approx. 2.5 × 10^3 cells/mL and incubated at 37°C for 24 h. After incubation period, the optical density was measured at 600 nm by using Thermo Scientific Multiskan Go plate reader. […] All the experiments were done in triplicate at separate times.
# [2] = test system: C. albicans D27 (FLC-sensitive clinical isolate); assay: Broth dilution IC50 determination; format: cell-based; conditions: Candida albicans, 24 h; read-out: Anti-Candida Activity (IC50± S.D.) C. albicans D27
# Experimental: as §1
# [3] = test system: C. albicans D31 (FLC-sensitive clinical isolate); assay: Broth dilution IC50 determination; format: cell-based; conditions: Candida albicans, 24 h; read-out: Anti-Candida Activity (IC50± S.D.) C. albicans D31
# Experimental: as §1
# [4] = test system: C. albicans D39 (FLC-sensitive clinical isolate); assay: Broth dilution IC50 determination; format: cell-based; conditions: Candida albicans, 24 h; read-out: Anti-Candida Activity (IC50± S.D.) C. albicans D39
# Experimental: as §1
# [5] = test system: C. glabrata ATCC 90030; assay: Broth dilution IC50 determination; format: cell-based; conditions: Nakaseomyces glabratus, ATCC90030, SD broth, 37°C, 24 h, OD 600 nm, read-out: Anti-Candida Activity (IC50± S.D.) C. glabrata ATCC90030
# Experimental: as §1
# [6] = test system: C. tropicalis ATCC 750; assay: Broth dilution IC50 determination; format: cell-based; conditions: Candida tropicalis, ATCC750, SD broth, 37°C, 24 h, OD 600 nm, read-out: Anti-Candida Activity (IC50± S.D.) C. tropicalis ATCC750
# Experimental: as §1
# [7] = test system: C. albicans D15.9 (FLC-resistant clinical isolate); assay: Broth dilution IC50 / MIC determination; format: cell-based; conditions: Candida albicans; for IC50: 24 h, read-out: Anti-Candida Activity (IC50± S.D.) C. albicans D15.9
# Experimental: as §1
# [8] = Cell proliferation assay (cytotoxicity); format: cell-based; conditions: monkey, Vero cells (monkey kidney fibroblasts), positive control
# Experimental: The in vitro cytotoxicity of compounds 3a and 3b to mammalian cells was also determined. The assay was performed in 96-well tissue culture-treated plates as described earlier. Vero cells (monkey kidney fibroblasts) were seeded to the wells of 96-well plate at a density of 25,000 cells/well and incubated for 24 h. Samples at different concentrations were added and plates were again incubated for 48 h. The number of viable cells was determined by Neutral Red assay. IC50 values were obtained from dose response curves. Doxorubicin was used as a positive control for cytotoxicity.
# [9] = test system: C. albicans ATCC 90028 (Standard); assay: Disk diffusion assay; format: cell-based; conditions: 20 μg per disk, 48 h
# Experimental: (§2) Disk diffusion assay was performed using C. albicans ATCC 90028 (standard), the two clinical isolates, C. albicans D27 (FLC-susceptible), and C. albicans D15.9 (FLC-resistant) for the lead inhibitors 3a and 3b. The C. albicans cells were inoculated into liquid SD medium and grown over night at 37°C. The cells were then centrifuged at 3000 rpm for 5 min, washed three times with PBS and then suspended in PBS again. Approximately, 10^5 cells/mL were inoculated into molten SD agar medium at 42°C and poured into 100-mm-diameter petriplates. Sterilized 4 mm disks of Whatman paper were placed on solid agar and 1, 2, and 4 μL of 3a and 2, 4, and 8 μL of 3b from the stock solution of 10 mg/mL were spotted on the disk. […] The diameter of zone of inhibition (ZOI) was recorded in millimetres after 48 h and was compared with that of control. This experiment was repeated thrice and values were shown in terms of mean ±standard error of mean.
# [10] = test system: C. albicans D15.9 (FLC-resistant); assay: Disk diffusion assay; format: cell-based; conditions: 48 h
# Experimental: as §2
# [11] = test system: C. albicans D27 (FLC-susceptible); assay: Disk diffusion assay; format: cell-based; conditions: Candida albicans; 20 μg per disk, 48 h; read-out: Zone of Inhibition
# Experimental: as §2
# [12] = test system: C. albicans; assay: Disk diffusion assay, appearance of zones (strains not distinguished); format: cell-based
# Experimental: as §2
# [13] = test system: C. albicans ATCC 90028 (Standard); assay: Growth assay (growth curve); format: cell-based; conditions: 40 μg/mL of FLC
# Experimental: (§3) The C. albicans cells were freshly revived by subculture on the SD agar plate. A loopful of inoculum was introduced into the SD broth and cells were grown for 16 h at 37°C before use. Approximately 2×10^3 cells/mL were then inoculated into the freshly prepared 50 mL sterile SD medium. […] At predetermined time periods (0, 2, 4, 6, 8, 10, 12, 14, 16, 18, 20 22, and 24 after incubation with agitation at 37°C), 1 mL aliquot of each sample was removed from the conical flask and growth was measured tubidometrically at 600 nm using Thermo Multiskan spectrophotometer. Optical density was recorded for each concentration against time (h).
# [14] = test system: C. albicans D15.9 (FLC-resistant); assay: Growth assay (growth curve); format: cell-based; conditions: 40 μg/mL of FLC
# Experimental: as §3
# [15] = test system: C. albicans D27 (FLC-susceptible); assay: Growth assay (growth curve); format: cell-based; conditions: 40 μg/mL of FLC
# Experimental: as §3
# [16] = test system: C. albicans ATCC 90028, C. albicans D27 (FLC-susceptible) and C. albicans D15.9 (FLC-resistant); assay: Time kill curve study, three strains; format: cell-based; conditions: 40 μg/mL; C. albicans standard and FLC-resistant
# Experimental: Time-kill curves were used for testing the fungicidal or fungistatic nature of the lead inhibitors 3a and 3b. The experimental procedure was performed according to the method reported by Wang et al.. C. albicans ATCC 90028, C. albicans D27 (FLC-susceptible) and C. albicans D15.9 (FLC-resistant) strains were used as test organisms. Fluconazole was used as a positive control. Freshly prepared sterile YEPD medium was inoculated by fresh culture (approx. 2×10^3 cells) of test organisms in different conical flasks. The cells were exposed to the test compounds at 2MIC, MIC and MIC/2 values, separately. All the conical flasks having different sets of test compounds and concentrations were incubated at 37°C and 160 rpm. At predetermined time points (0, 4, 12, 24, and 48 h after incubation with agitation at 37°C), a 100-μL aliquot was removed from every solution and appropriately diluted in sterile water. A 100-μl aliquot from each dilution was spread over the YEPD agar plate. Colony counts were determined after incubation at 37°C for 24 h. All the time-kill curve experiments were conducted in duplicate and mean colony count data (log10 CFU/mL) were plotted as a function of time for each strain.
# [17] = Hemolytic assay; format: cell-based; conditions: human, 37°C, read-out: Hemolysis of hRBCs
# Experimental: Human blood from a healthy individual was collected in tubes containing EDTA as anti-coagulant. The erythrocytes were harvested by centrifugation for 10 min at 2000 rpm and 20°C, washed three times in PBS. To the pellet, PBS was added to yield a 10% (v/v) erythrocytes/PBS suspension. The 10% suspension was then diluted 1:10 in PBS. From each suspension, 100 μL was added in triplicate to 100 μL of a different dilution series of test compounds in the same buffer in micro centrifuge tubes. […] The tubes were incubated for 1 h at 37°C and then centrifuged for 10 min at 2000 rpm and 20°C. From the supernatant, 150 μL was transferred to a flat-bottomed microtiter plate (Tarson), and the absorbance was measured spectrophotometrically at 450 nm. The hemolysis percentage was calculated by following equation: %Hemolysis=[(A450oftestcompoundtreatedsample−A450ofbuffertreatedsample)÷(A450of1%TritonX−100treatedsample−A450ofbuffertreatedsample)]×100
# [18] = test system: ergosterol biosynthesis; assay: Ergosterol estimation assay; conditions: 40 μg/mL of FLC, 16 h
# [19] = test system: ergosterol biosynthesis; assay: Ergosterol estimation assay; conditions: 40 μg/mL of FLC, 16 h; remark: listed apart in the source
# [20] = biological target: T1, plasma membrane H+ ATPase (Candida albicans, UniProt P28877); assay: Proton extrusion measurement (H+ efflux); format: cell-based, C. albicans ATCC 90028; conditions: glucose 5mM alone
# T1 construct: endogenous in cells; host or cells: C. albicans ATCC 90028; clinical isolates C. albicans D27 (FLC-susceptible) and D15.9 (FLC-resistant); mid-log phase whole cells
# T1 sequence (P28877 whole entry): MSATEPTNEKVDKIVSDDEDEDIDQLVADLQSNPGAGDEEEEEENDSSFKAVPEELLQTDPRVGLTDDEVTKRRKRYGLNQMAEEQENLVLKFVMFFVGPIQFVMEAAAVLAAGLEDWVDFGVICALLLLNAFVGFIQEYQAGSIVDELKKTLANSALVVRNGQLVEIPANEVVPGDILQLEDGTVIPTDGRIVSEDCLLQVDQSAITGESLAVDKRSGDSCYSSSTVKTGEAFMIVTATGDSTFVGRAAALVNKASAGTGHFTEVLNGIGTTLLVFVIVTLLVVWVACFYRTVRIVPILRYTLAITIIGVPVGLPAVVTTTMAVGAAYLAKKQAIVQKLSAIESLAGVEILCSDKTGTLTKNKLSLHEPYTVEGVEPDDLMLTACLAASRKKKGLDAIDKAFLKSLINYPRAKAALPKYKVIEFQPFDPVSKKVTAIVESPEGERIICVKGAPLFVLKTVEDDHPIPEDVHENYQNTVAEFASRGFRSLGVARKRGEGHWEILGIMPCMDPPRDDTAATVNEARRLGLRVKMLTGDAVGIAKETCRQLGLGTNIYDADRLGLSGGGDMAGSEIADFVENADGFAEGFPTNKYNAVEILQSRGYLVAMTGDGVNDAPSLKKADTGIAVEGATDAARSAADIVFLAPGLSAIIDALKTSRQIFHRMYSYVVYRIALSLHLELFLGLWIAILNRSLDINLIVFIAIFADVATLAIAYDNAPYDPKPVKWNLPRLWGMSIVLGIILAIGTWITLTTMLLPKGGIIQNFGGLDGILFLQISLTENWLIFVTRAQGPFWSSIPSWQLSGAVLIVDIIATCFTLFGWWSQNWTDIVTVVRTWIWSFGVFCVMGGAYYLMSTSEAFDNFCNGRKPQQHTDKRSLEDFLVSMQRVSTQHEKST
# Experimental: (§4) The proton pumping activity of C. albicans was determined by monitoring acidification of external medium by measuring pH as describe earlier. In brief, the mid-log phase cells were harvested from SD medium by centrifugation at 3000 rpm for 15 min which is followed by three washings with phosphate buffer saline (PBS). A solution containing 0.1 M KCl and 0.1 mM CaCl2 in distilled water was prepared. Compounds 3a and 3b at the concentrations of 50 and 100 μg/mL were separately added in this solution. […] Initial pH was adjusted to 7.0 using 0.01 M HCl/NaOH. Approximately 0.2 g of cells were suspended in each set of solution. Suspension was kept in a double-jacketed glass container with constant stirring. Again, the pH of suspension was maintained as 7.0 for 1 min by using 0.01 N NaOH. The rate of H^+ extrusion was then monitored and calculated from the volume of 0.01 N NaOH consumed per min per mg weight of cells. Glucose has been reported as the stimulator of proton extrusion pump. Therefore above experiment was also repeated in the presence of 5 mM of glucose.
# [21] = biological target: T1, plasma membrane H+ ATPase; assay: Proton extrusion measurement (H+ efflux); format: cell-based, C. albicans D27 (FLC-susceptible)
# Experimental: as §4
# [22] = biological target: T1, plasma membrane H+ ATPase; assay: cell-based; design: species or system C. albicans D15.9 (FLC-resistant)
# Experimental: as §4
smiles,measurement,setting,value
"c1ccc(Cn2cc(COc3cccc4ccccc34)nn2)cc1 [Compound 3c, 1-Benzyl-4-((naphthalen-1-yloxy)methyl)-1H-1,2,3-triazole]",IC50,[1],91.2 ± 0.76 µg/mL
same,IC50,[2],43.7 ± 1.18 µg/mL
same,IC50,[3],119 ± 2.94 µg/mL
same,IC50,[4],62.2 ± 1.07 µg/mL
same,IC50,[5],107 ± 1.41 µg/mL
same,IC50,[6],38.2 ± 0.83 µg/mL
same,IC50,[7],66.9 ± 1.84 µg/mL
COc1cccc2c1C(=O)c1c(O)c3c(c(O)c1C2=O)C[C@@](O)(C(=O)CO)C[C@@H]3O[C@H]1C[C@H](N)[C@H](O)[C@H](C)O1 [Doxorubicin],IC50 at 48 h,[8],> 5 µg/mL
"OC(Cn1cncn1)(Cn1cncn1)c1ccc(F)cc1F [FLC, Fluconazole, reference compound]",IC50,[1],15.6 ± 0.65 µg/mL
same,IC50,[2],< 7.5 µg/mL
same,IC50,[3],< 7.5 µg/mL
same,IC50,[4],< 7.5 µg/mL
same,IC50,[5],7.81 ± 0.88 µg/mL
same,IC50,[6],8.55 ± 1.59 µg/mL
same,MIC,[7],> 1 µg/mL
same,IC50,[7],> 1000 µg/mL
same,Zone of Inhibition,[9],26± 1.02 mm
same,zone of inhibition at 20 µg/disc,"[9]; Candida albicans, ATCC90028",26 mm
same,Zone of Inhibition,[10]; 20 μg per disk,24± 0.74 mm
same,zone of inhibition at 20 µg/disc,[10]; Candida albicans,24 mm
same,zone of inhibition at 20 µg/disc,[11],27 ± 1.35 mm
same,"Appearance of zone around disks (clear = fungicidal nature, turbid = fungistatic nature)",[12],turbid
same,Time by which lag phase was over,[13],16 h
same,Time by which lag phase was over,[14],16 h
same,Time by which lag phase was over,[15],20 h
same,"CFU/mL, treated versus untreated cells",[16],no significant difference in CFU/mL
same,"hemolysis at 1 h, 500 μg/mL",[17],68.6%
same,Decrease in ergosterol content,[18],100%
same,Decrease in ergosterol content,[19],96%
"OC[C@H]1OC(O)[C@H](O)[C@@H](O)[C@@H]1O (stereo partly shown) [Glucose, reference compound]",Range of relative H+ efflux rate,[20],54.95 ± 2.7 ×10^−6 mol min^−1 mg cells^−1
same,Increase of the rate of H+ extrusion,[21]; 5 mM of glucose,24%
same,Range of relative H+ efflux rate,[21]; glucose 5mM alone,40.00 ± 2.0 ×10^−6 mol min^−1 mg cells^−1
same,Increase of the rate of H+ extrusion,[22]; 5 mM of glucose,36%
same,Range of relative H+ efflux rate,[22]; glucose 5mM alone,43.33 ± 2.1 ×10^−6 mol min^−1 mg cells^−1
